The test system of one data set is DENV2 NGC. As to the kind of experiment: Efficacy study (EC50) in DENV2 infected Vero cells, plaque titration. Format: cell-based, Dengue virus. The conditions noted are these: for EC50: DENV2 NGC (M.O.I. of 0.1) infected Vero cells, plaque titration, 3 days; for TI (therapeutic index, CC50/EC50): Vero CC50 / DENV2 EC50. As for the experimental part:
Next, we studied the efficacies (EC50) of the phenolic lipid homologues against DENV2 infectivity in Vero cells. Briefly, compounds at 10 different concentrations were added to DENV2-infected Vero cells (M.O.I. of 0.1) during and post infection and the viral inhibition was determined by plaque titration. […] Noted that anacardic acids were major components of CNSL extracts and all homologues were purified directly from CNSL itself.
Next, each homologue was analyzed for effective concentration (EC50). Vero (5 × 10^4) cells were seeded, and infected with DENV2 (M.O.I. of 0.1) as previously described. Phenolic lipid mixtures and homologues were serially diluted in DMSO to the final concentrations as follows; 0, 0.5, 1, 1.5, 2, 2.5, 5, 7.5, 10, 25, and 50 µM. DMSO at the concentration of 1% was used as a mock treatment referring to 100% infection. Infected cells were treated with the designated compounds during and post infection. Supernatants were collected at 3 days after infection for analysis of virion production by plaque titration. Non-linear regression analysis was used to determine the effective concentrations. […] The therapeutic index (TI) was a ration of CC50/EC50 of the compound.

Data set [1] can be described thus: Cytotoxic concentration (CC50), MTS. The settings on record: African green monkey, Vero cells. Type of data set: cell-based. On the procedure:
Cytotoxic concentrations (CC50) were also studied using Vero cells. Briefly, the 10^4 cells were seeded into each well of 96-well plates. After an overnight incubation, phenolic lipids were serially diluted in DMSO to the final concentrations as follows; 25, 50, 100, 200, 300, 400, and 500 µM. Each concentration was performed in quadruplicates. DMSO at 1% was used as a mock treatment referring to 100% cell viability. Cells were incubated for 48 h before cell viability was accessed using CellTiler 96® Aqueous One Solution Cell Proliferation Assay kit (Promega, Wisconsin, USA). Non-linear regression analysis was used to determine cytotoxic concentrations (CC50) of each experiment.

Another data set relates to K562. Also noted: method as in PMID 25726174. The conditions noted are these: cited from earlier work.
The next data set has as its system hepatitis C virus (HCV). Also noted: method as in PMID 25658101. The settings on record: cited from earlier work.
A further data set relates to AGS. Also on record: method as in PMID 25726174. The conditions noted are these: cited from earlier work.
Data set [2] concerns BHK-21/DENV2 replicon cells. Description: Replicon inhibition study, RT-qPCR of DENV2 NS1. Format: cell-based, Dengue virus. The conditions noted are these: 72 h. On the procedure: We analyzed the replication inhibition using BHK-21/DENV2 replicon cells stably expressed the non-structural proteins. Cardol triene at 10 µM and 20 µM were added to the replicon cells for 72 h and the replication inhibition was accessed by RT-qPCR of DENV2 NS1. Ribavirin, a known inhibitor of flaviviral replication, was used as a positive inhibition control. […] Replicon cell viability under cardol triene treatment was also analyzed using an MTS assay. […] Therefore, we concluded that cardol triene inhibited DENV RNA replicon replication, potentially in dose-dependent manner.
BHK-21 (5 × 10^4) cells expressing DENV-2 replicon (BHK-21/DENV2)[44] were seeded as previously described. Cardol triene at 10 µM and 20 µM, DMSO, and ribavirin (TargetMol, USA) were added to the replicon cells and incubated at 37 °C for 3 days. Cells lysates were collected and viral RNA was quantified by RT-qPCR as previously described. Data were reported as percent inhibition compared with ribavirin. Three biological replicates were performed and results were means and SEM of all replicates.
(In antiviral work, replicon cells carry a viral genome segment that copies itself.)

The next data set can be described thus: Solubility in DMSO. Format: physicochemical.
[3] abbreviates: Dengue virus, 72 h, read-out: EC50.

The values that follow come from PMC6226472, “Cardol triene inhibits dengue infectivity by targeting kl loops and preventing envelope fusion” (Scientific Reports, 2018).

Read-outs that look alike come from different tables or passages of the source.

`CCC/C=C/C/C=C/CCCCCCCc1cccc(O)c1C(=O)O` [Anacardic acid diene, 6-[8(Z), 11(Z)-pentadecadienyl]salicylic acid]: the EC50 entry with DENV2 NGC was “Not inhibited”. Also, the CC50 at 48 h in data set [1] turned out to be 112 ± 8.57 µM.
Regarding `CCCCCCCCCCCCCCCc1cc(O)cc(O)c1` [Cardol saturated], the EC50 in the data set on DENV2 NGC (setting [3]) worked out at 12.7 ± 0.67 µM. Also, the “TI (therapeutic index, CC50/EC50)” value in the data set with DENV2 NGC turned out to be 4.62. For the same compound, the CC50 at 48 h in data set [1] is 58.75 ± 0.43 µM.
`CCCCCC/C=C\CCCCCCCc1cccc(O)c1C(=O)O` [Anacardic acid monoene, 6-[8(Z)-pentadecenyl]salicylic acid]: the EC50 with DENV2 NGC (setting [3]) turned out to be 12.6 ± 0.84 µM. For the same compound, the “TI (therapeutic index, CC50/EC50)” value in the data set with DENV2 NGC stood at 5.88. The same compound yielded a CC50 at 48 h in data set [1] of 74 ± 0.85 µM.
For the compound `CCCCCCCCCCCCCCCc1cccc(O)c1C(=O)O` [Anacardic acid saturated, 6-pentadecylsalicylic acid], the CC50 in the data set on K562 was 25.4 µM; in the data set with AGS, 41.6 µM. Further, the EC50 in the data set with hepatitis C virus (HCV) is 7.25 µM; in the data set on DENV2 NGC (setting [3]) it was 4.31 ± 1.17 µM. The “TI (therapeutic index, CC50/EC50)” value in the data set on DENV2 NGC stood at 15.39. Besides, the CC50 at 48 h in data set [1] came out at 66.3 ± 1.58 µM.
As for `C=CC/C=C/C/C=C/CCCCCCCc1cccc(O)c1C(=O)O` [Anacardic acid triene, 6-[8(Z), 11(Z), 14-pentadecatrienyl]salicylic acid], in the data set with DENV2 NGC (setting [3]), the EC50 came to 7.48 ± 2.14 µM. The “TI (therapeutic index, CC50/EC50)” value with DENV2 NGC is given as 15.38. The compound also registered a CC50 at 48 h in data set [1] of 115 ± 14.1 µM.
Take `CCCCCCCCCCCCCCCc1cccc(O)c1` [Cardanol saturated]: the EC50 in the data set with DENV2 NGC (setting [3]) is 5.89 ± 2.83 µM. In addition, the “TI (therapeutic index, CC50/EC50)” value in the data set on DENV2 NGC was found to be 7.39. This compound also gave a CC50 at 48 h in data set [1] of 43.5 ± 1.1 µM.
For `NC(=O)c1ncn([C@@H]2O[C@H](CO)[C@@H](O)[C@H]2O)n1` [ribavirin, reference compound], the “DENV2 RNA inhibition” value came out at 98.42 ± 0.68% in data set [2] (10 µM) and 98.09 ± 0.72% in data set [2] (20 µM).
As for `C=CC/C=C/C/C=C/CCCCCCCc1cccc(O)c1` [Cardanol triene, 3-[8(Z), 11(Z), 14-pentadecatrienyl]phenol], the “solubility in DMSO” value in the data set “Solubility in DMSO” was “insoluble”.

The term EC50 denotes the concentration needed to bring the measured effect to its halfway point.
